In patent US20050171424A1, “Methods for imaging the lymphatic system using dendrimer-based contrast agents” (The Gov. of the USA as rep. by the Secretary of the Dept. …, priority 2004, published 2005):

Assays:
[1] = system: lymphatic drainage from PT-18 tumor-bearing mammary gland; assay: Mammo-MR-lymphangiography of PT-18 tumor xenograft-bearing mammary gland; assay type: in vivo, athymic nu/nu mice; conditions: FIG. 5
Description: Tumor xenografts of PT-18, a murine mast cell line, were introduced into the left mammary pad in athymic nu/nu mice. When 10^7 PT-18 cells were injected in the left mammary pad of 10 athymic nu/nu mice, six mice developed tumor masses in the left axillary lymph nodes within three weeks.
(§1) Mice were anesthetized with 1.15 mg sodium pentobarbital (Dainabot, Osaka, Japan), and then injected with 0.15-0.24 μmol Gd/5-8 μL of the PAMAM-G6 contrast agent into normal mammary glands or mammary tissue surrounding a tumor (peritumorally). Dynamic micro-MR images were obtained using a 1.5-Tesla superconductive magnet unit (Signa LX, General Electric Medical System, Milwaukee, Wis.) with a birdcage type coil of 3 cm diameter fixed by a custom made coil holder. [Single and double “breast coils” used for imaging breasts in humans are commercially available, for example, from GE Medical Systems (Milwaukee, Wis.) and are routinely available in outpatient MRI centers] The mice were wrapped with gauze to stabilize their body temperature and were placed at the center of the coils.
In order to evaluate lymphatic drainage from six tumor-bearing mammary glands of three BALB-neuT transgenic mice or the PT-18 tumor-bearing mammary gland of athymic nu/nu mice (n=6), 2D fast-inversion recovery [2D-fastIR; repetition time/echo time 8000/96 msec; inversion time 150 msec; 31.2 kHz, 2 excitations; 16 slices; scan time 2 min 16 seconds] was employed to evaluate the tumor localization before injection of PAMAM-G6 contrast agent. The coronal images were reconstructed with 1.5 mm section thickness without a gap. The FOV was 8×4 cm and the size of matrix was 512×256. The slice data were processed into 3D images using the MIP method with the same window and level (window 3500 and level 2100) (Advantage Windows, GE). Then images were obtained with the 3D-fastSPGR sequence as described above.

[2] = system: draining lymph nodes and lymphatic vessels; assay: 3D dynamic mammo-lymphangiograms after sequential injection of GPDM and PAMAM-G6 into the mammary gland; assay type: in vivo, athymic nu/nu mice; conditions: 0.15 μmol Gd into mammary gland; GPDM imaged at 12, 24, 36 min, then PAMAM-G6 injected 36 minutes following GPDM
Description: Mice were anesthetized with 1.15 mg sodium pentobarbital (Dainabot, Osaka, Japan), and then injected with 0.15-0.24 μmol Gd/5-8 μL of the PAMAM-G6 contrast agent into normal mammary glands or mammary tissue surrounding a tumor (peritumorally). Dynamic micro-MR images were obtained using a 1.5-Tesla superconductive magnet unit (Signa LX, General Electric Medical System, Milwaukee, Wis.) with a birdcage type coil of 3 cm diameter fixed by a custom made coil holder. [Single and double “breast coils” used for imaging breasts in humans are commercially available, for example, from GE Medical Systems (Milwaukee, Wis.) and are routinely available in outpatient MRI centers] The mice were wrapped with gauze to stabilize their body temperature and were placed at the center of the coils. Athymic nu/nu mice (n=4) were anesthetized and injected with 0.15 μmol Gd of GPDM into the mammary gland, and images were taken 12, 24, and 36 min after injection. Following these three images, these mice were subsequently injected with 0.15 μmol Gd of PAMAM-G6 contrast agent in the mammary gland, and images were taken at 12 and 24 min post-injection of the PAMAM-G6 contrast agent (at 48 and 60 min post-injection of GPDM).

[3] = system: Draining Lymph Nodes (LNs) From the Normal Breast Tissue; assay: Dynamic micro-MR mammo-lymphangiography of lymphatic drainage from the normal mammary gland; assay type: in vivo, mice (Balb/c, athymic nu/nu)
Description: as §1
In order to evaluate the lymphatic drainage from the normal mammary gland of either Balb/c mice (n=5) or athymic nu/nu mice (n=5), 3D-fast spoiled gradient echo [3D-fastSPGR (efgre3d package; Signa Horizon, GE); repetition time/echo time 19.2/7.2 msec; inversion time 47 msec; 31.2 kHz, flip angle 30°, 4 excitations; 36 slice encoding steps; scan time 4 min 49 seconds] with chemical shift fat-suppression was used 6, 12, 18, 24, 30, 36, 42, and 48 min after injection of the contrast agent. The coronal images were reconstructed with 0.6-mm section thickness every 0.3-mm. The FOV was 8×4 cm and the size of the matrix was 512×256. The slice data were processed into 3D images using the maximum intensity projection (MIP) method with the same window and level (window 3500 and level 2100) (Advantage Windows, General Electric Medical System). After imaging, the mice were sacrificed by carbon dioxide inhalation.

[4] = Distribution and survival properties of the dendrimer conjugates; conditions: in vivo
[5] = system: lymphatic drainage from tumor-bearing mammary glands; assay: Mammo-MR-lymphangiography of tumor-bearing mammary glands, BALB-neuT transgenic breast cancer model; assay type: in vivo, BALB-neuT transgenic mice; conditions: FIG. 4
Description: The breast-tumor bearing mice were thirty one week-old BALB-neuT mice (n=3) transgenic for the rat HER-2/neu (Erb B2) oncogene under the control of the mouse mammary tumor virus promotor (MMTV). […] BALB-neuT mice were used because of their spontaneous development of bilateral breast cancers and lymph node metastases. […] Most metastatic lymph nodes from the mouse mammary pad localize in the neck, lateral thoracic, or axillary region.
Mice were anesthetized with 1.15 mg sodium pentobarbital (Dainabot, Osaka, Japan), and then injected with 0.15-0.24 μmol Gd/5-8 μL of the PAMAM-G6 contrast agent into normal mammary glands or mammary tissue surrounding a tumor (peritumorally). Dynamic micro-MR images were obtained using a 1.5-Tesla superconductive magnet unit (Signa LX, General Electric Medical System, Milwaukee, Wis.) with a birdcage type coil of 3 cm diameter fixed by a custom made coil holder. [Single and double “breast coils” used for imaging breasts in humans are commercially available, for example, from GE Medical Systems (Milwaukee, Wis.) and are routinely available in outpatient MRI centers] The mice were wrapped with gauze to stabilize their body temperature and were placed at the center of the coils. […]

[6] = 6 min after injection into normal mammary gland
[7] = 12 min after injection into normal mammary gland
[8] = 18 min after injection into normal mammary gland
[9] = 24 min after injection into normal mammary gland
[10] = 30 min after injection into normal mammary gland
[11] = 36 min after injection into normal mammary gland
[12] = 42 min after injection into normal mammary gland
[13] = 48 min after injection into normal mammary gland

PAMAM-G6D-(Gd-1B4M)256 dendrimer conjugate
Enhancement of axillary lymph node tissue with metastatic tumor cells [1]: did not shown enhancement
Enhancement of the lymphatic vessel flowing into the lymph node with a metastatic tumor [1]: dilated and showed enhancement
Visualization of flow within the draining lymphatic vessels ([1]; peritumoral injection): readily visualized
Visualization of draining lymph nodes and lymphatic vessels (FIG. 3) [2]: clearly visualized
Visualized LNs/Total Examined LNs, Axillary LN [3, 6]: 10/10
Visualized LNs/Total Examined LNs, Lateral thoracic LN [3, 6]: 0/10
Visualized LNs/Total Examined LNs, Superficial cervical LN [3, 6]: 1/10
Visualized LNs/Total Examined LNs, Axillary LN [3, 7]: 10/10
Visualized LNs/Total Examined LNs, Lateral thoracic LN [3, 7]: 1/10
Visualized LNs/Total Examined LNs, Superficial cervical LN [3, 7]: 1/10
Visualized LNs/Total Examined LNs, Axillary LN [3, 8]: 10/10
Visualized LNs/Total Examined LNs, Lateral thoracic LN [3, 8]: 2/10
Visualized LNs/Total Examined LNs, Superficial cervical LN [3, 8]: 1/10
Visualized LNs/Total Examined LNs, Axillary LN [3, 9]: 10/10
Visualized LNs/Total Examined LNs, Lateral thoracic LN [3, 9]: 4/10
Visualized LNs/Total Examined LNs, Superficial cervical LN [3, 9]: 2/10
Visualized LNs/Total Examined LNs, Axillary LN [3, 10]: 10/10
Visualized LNs/Total Examined LNs, Lateral thoracic LN [3, 10]: 4/10
Visualized LNs/Total Examined LNs, Superficial cervical LN [3, 10]: 2/10
Visualized LNs/Total Examined LNs, Axillary LN [3, 11]: 10/10
Visualized LNs/Total Examined LNs, Lateral thoracic LN [3, 11]: 5/10
Visualized LNs/Total Examined LNs, Superficial cervical LN [3, 11]: 3/10
Visualized LNs/Total Examined LNs, Axillary LN [3, 12]: 10/10
Visualized LNs/Total Examined LNs, Lateral thoracic LN [3, 12]: 6/10
Visualized LNs/Total Examined LNs, Superficial cervical LN [3, 12]: 3/10
Visualized LNs/Total Examined LNs, Axillary LN [3, 13]: 10/10
Visualized LNs/Total Examined LNs, Lateral thoracic LN [3, 13]: 6/10
Visualized LNs/Total Examined LNs, Superficial cervical LN [3, 13]: 3/10
Mice in which the axillary lymph node and its afferent lymphatic vessels were visualized ([3]; initial (6 min) time point): all 10 mice
Survival period in the lymph system [4]: intermediate survival period in the lymph system
Imaging of enlarged lymph nodes containing tumor metastases and dilated lymphatic vessels [5]: clearly imaged
Visualization of flow within the draining lymphatic vessels ([5]; peritumoral injection): readily visualized
